Data from patent US20260265233A1, “BENZOTHIOPHENE DERIVATIVES AS RXFP1 AGONISTS” (BRISTOL-MYERS SQUIBB COMPANY, priority 2021, published 2026).

Biological target: T1, human RXFP1 (Homo sapiens, UniProt Q9HBX9)
T1 construct: expressed in transfected cells
T1 sequence (Q9HBX9 1-757): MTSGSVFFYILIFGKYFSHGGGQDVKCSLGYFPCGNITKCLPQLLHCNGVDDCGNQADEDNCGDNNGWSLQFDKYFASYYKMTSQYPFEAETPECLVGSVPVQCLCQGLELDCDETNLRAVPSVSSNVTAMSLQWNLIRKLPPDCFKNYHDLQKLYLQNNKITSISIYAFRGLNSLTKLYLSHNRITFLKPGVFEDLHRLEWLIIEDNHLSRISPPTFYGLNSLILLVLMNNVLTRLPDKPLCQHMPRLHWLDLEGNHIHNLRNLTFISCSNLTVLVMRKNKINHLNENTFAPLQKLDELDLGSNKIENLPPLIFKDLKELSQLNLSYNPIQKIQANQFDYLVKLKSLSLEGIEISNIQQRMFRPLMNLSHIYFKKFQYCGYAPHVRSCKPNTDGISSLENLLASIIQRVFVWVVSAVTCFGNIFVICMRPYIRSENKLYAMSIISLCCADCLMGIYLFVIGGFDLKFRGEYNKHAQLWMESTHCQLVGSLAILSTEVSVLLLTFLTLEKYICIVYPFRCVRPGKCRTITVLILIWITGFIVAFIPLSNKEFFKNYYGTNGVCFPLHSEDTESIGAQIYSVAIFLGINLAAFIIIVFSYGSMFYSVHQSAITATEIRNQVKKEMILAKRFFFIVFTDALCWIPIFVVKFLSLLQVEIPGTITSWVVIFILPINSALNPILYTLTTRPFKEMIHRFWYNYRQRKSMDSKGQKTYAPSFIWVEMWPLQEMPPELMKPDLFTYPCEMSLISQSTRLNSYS
Assay: hRXFP1 HEK293 cAMP assay (HTRF)
Type: cell-based
Conditions: HEK293 cells stably expressing human RXFP1; 30 min at rt; intracellular cAMP by HTRF
Procedure, shortened: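 Agonism is measured as cAMP by HTRF, quantified from a standard curve via the 665/590 nm ratio and fitted with a four-parameter logistic equation. Compounds (0.010 nM to 50 μM final, 2% DMSO) were applied for 30 min at rt to human RXFP1-expressing HEK293 cells in assay buffer containing 0.5 mM IBMX.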

EC50 | Compound
3740 nM | COc1ccc(CCCO)cc1C(=O)Nc1c(C(=O)NC2CCCC(C(F)(F)F)C2)sc2cc(C(F)(F)F)ccc12 (single isomer, unassigned) [Example 44, 3-(5-(3-hydroxypropyl)-2-methoxybenzamido)-6-(trifluoromethyl)-N-(3-(trifluoromethyl)cyclohexyl) benzo[b]thiophene-2-carboxamide]
1340 nM | COc1ncc(N2CC3(C2)CS(=O)(=O)C3)cc1C(=O)Nc1c(C(=O)Nc2ccc(F)c(C(F)(F)F)c2)sc2cc(C(F)(F)F)ccc12 [Example 234, 5-(2,2-dioxido-2-thia-6-azaspiro[3.3]heptan-6-yl)-N-(2-((4-fluoro-3-(trifluoromethyl)phenyl)carbamoyl)-6-(trifluoromethyl)benzo[b]thiophen-3-yl)-2-methoxy-nicotinamide]
1010 nM | COc1ccc(-c2cc(CNCC(C)C)ccc2F)cc1C(=O)Nc1c(C(=O)Nc2ccc(F)c(C(F)(F)F)c2)sc2cc(C(F)(F)F)ccc12 [Example 19, N-(4-fluoro-3-(trifluoromethyl)phenyl)-3-(2′-fluoro-5′-((isobutylamino)methyl)-4-methoxy-[1,1′-biphenyl]-3-carboxamido)-6-(trifluoromethyl) benzo[b]thiophene-2-carboxamide]
1650 nM | COc1ccc(C2CCN(C(=O)C(F)F)C2)cc1C(=O)Nc1c(C(=O)Nc2ccc(F)c(C(F)(F)F)c2)sc2cc(C(F)(F)F)ccc12 (centres unmarked) [Example 145, 3-(5-(1-(2,2-difluoroacetyl)pyrrolidin-3-yl)-2-methoxy-benzamido)-N-(4-fluoro-3-(trifluoromethyl)phenyl)-6-(trifluoromethyl) benzo[b] thiophene-2-carboxamide]
723 nM | COc1ccc(C2=NOC3CC(NC(=O)C(C)(C)O)CC23)cc1C(=O)Nc1c(C(=O)Nc2ccc(F)c(C(F)(F)F)c2)sc2cc(C(F)(F)F)ccc12 (single isomer, unassigned) [Example 262, N-[4-fluoro-3-(trifluoromethyl)phenyl]-3-{5-[5-(2-hydroxy-2-methyl-propanamido)-3aH,4H,5H,6H, 6aH-cyclopenta[d] [1,2]oxazol-3-yl]-2-methoxy-benzamido}-6-(trifluoromethyl)-1-benzothiophene-2-carboxamide]
149 nM | COc1ccc(C2CCCN(C(=O)C(C)(C)CO)C2)cc1C(=O)Nc1c(C(=O)Nc2ccc(F)c(C(F)(F)F)c2)sc2cc(C(F)(F)F)ccc12 (single isomer, unassigned) [Example 105, N-[4-fluoro-3-(trifluoromethyl)phenyl]-3-{5-[1-(3-hydroxy-2,2-dimethyl-propanoyl)piperidin-3-yl]-2-methoxy-benzamido}-6-(trifluoromethyl)-1-benzothiophene-2-carboxamide]
2230 nM | COc1ccc(C2CCCN(CC(O)CO)C2)cc1C(=O)Nc1c(C(=O)Nc2ccc(F)c(C(F)(F)F)c2)sc2cc(C(F)(F)F)ccc12 (centres unmarked) [Example 102, 3-(5-(1-(2,3-dihydroxypropyl)piperidin-3-yl)-2-methoxy-benzamido)-N-(4-fluoro-3-(trifluoromethyl)phenyl)-6-(trifluoromethyl) benzo[b] thiophene-2-carboxamide]
314 nM | COc1ccc(C2CCN(CCS(C)(=O)=O)C2)cc1C(=O)Nc1c(C(=O)Nc2ccc(F)c(C(F)(F)F)c2)sc2cc(C(F)(F)F)ccc12 (single isomer, unassigned) [Example 153, N-(4-fluoro-3-(trifluoromethyl)phenyl)-3-(2-methoxy-5-(1-(2-(methylsulfonyl)ethyl)pyrrolidin-3-yl)benzamido)-6-(trifluoromethyl) benzo[b] thiophene-2-carboxamide]
876 nM | COc1ccc(C2CCNC2)cc1C(=O)Nc1c(C(=O)Nc2ccc(F)c(C(F)(F)F)c2)sc2cc(C(F)(F)F)ccc12 (single isomer, unassigned) [Example 133, N-(4-fluoro-3-(trifluoromethyl)phenyl)-3-(2-methoxy-5-(pyrrolidin-3-yl)benzamido)-6-(trifluoromethyl) benzo[b] thiophene-2-carboxamide]
213 nM | COc1ccc(C2CCN(C(=O)C3(O)CC3)C2)cc1C(=O)Nc1c(C(=O)Nc2ccc(F)c(C(F)(F)F)c2)sc2cc(C(F)(F)F)ccc12 (centres unmarked) [Example 138, N-(4-fluoro-3-(trifluoromethyl)phenyl)-3-(5-(1-(1-hydroxycyclo-propane-1-carbonyl)pyrrolidin-3-yl)-2-methoxy-benzamido)-6-(trifluoromethyl) benzo[b] thiophene-2-carboxamide]
248 nM | COc1ccc(C2CC3(C2)CN(C2COC2)C3)cc1C(=O)Nc1c(C(=O)Nc2ccc(F)c(C(F)(F)F)c2)sc2cc(C(F)(F)F)ccc12 [Example 106, N-(4-fluoro-3-(trifluoromethyl)phenyl)-3-(2-methoxy-5-(2-(oxetan-3-yl)-2-azaspiro[3.3]heptan-6-yl)benzamido)-6-(trifluoromethyl) benzo[b] thiophene-2-carboxamide]
87 nM | COc1ccc(-c2ccc(F)c(C(=O)O)c2)cc1C(=O)Nc1c(C(=O)Nc2ccc(F)c(C(F)(F)F)c2)sc2cc(C(F)(F)F)ccc12 [Example 13, 4-fluoro-3′-((2-((4-fluoro-3-(trifluoromethyl)phenyl)carbamoyl)-6-(trifluoromethyl)benzo[b]thiophen-3-yl)carbamoyl)-4′-methoxy-[1, 1′-biphenyl]-3-carboxylic acid]
1370 nM | CNC(=O)CN1CCCC(c2ccc(OC)c(C(=O)Nc3c(C(=O)Nc4ccc(F)c(C(F)(F)F)c4)sc4cc(C(F)(F)F)ccc34)c2)C1 (centres unmarked) [Example 99, N-(4-fluoro-3-(trifluoromethyl)phenyl)-3-(2-methoxy-5-(1-(2-(methylamino)-2-oxoethyl)piperidin-3-yl)benzamido)-6-(trifluoromethyl) benzo[b] thiophene-2-carboxamide]
1060 nM | COc1ccc(C2CC2C(=O)O)cc1C(=O)Nc1c(C(=O)Nc2ccc(F)c(C(F)(F)F)c2)sc2cc(C(F)(F)F)ccc12 (single isomer, unassigned) [Example 47, 2-(3-((2-((4-fluoro-3-(trifluoromethyl)phenyl)carbamoyl)-6-(trifluoromethyl)benzo[b]thiophen-3-yl)carbamoyl)-4-methoxyphenyl) cyclopropane-1-carboxylic acid]
673 nM | COc1ccc(C2=NOC(C(C)(C)O)C2)cc1C(=O)Nc1c(C(=O)Nc2ccc(F)c(C(F)(F)F)c2)sc2cc(C(F)(F)F)ccc12 (single isomer, unassigned) [Example 258, N-[4-fluoro-3-(trifluoromethyl)phenyl]-3-{5-[5-(2-hydroxypropan-2-yl)-4,5-dihydro-1,2-oxazol-3-yl]-2-methoxy-benzamido}-6-(trifluoromethyl)-1-benzothiophene-2-carboxamide]
4310 nM | COc1ccc(C2CCCN(CCO)CC2)cc1C(=O)Nc1c(C(=O)Nc2ccc(F)c(C(F)(F)F)c2)sc2cc(C(F)(F)F)ccc12 (single isomer, unassigned) [Example 72, N-(4-fluoro-3-(trifluoromethyl)phenyl)-3-(5-(1-(2-hydroxyethyl)azepan-4-yl)-2-methoxy-benzamido)-6-(trifluoromethyl) benzo[b] thiophene-2-carboxamide]
390 nM | COc1ccc(C2CCCN(C(=O)OC(C)(C)C)C2)cc1C(=O)Nc1c(C(=O)Nc2ccc(F)c(C(F)(F)F)c2)sc2cc(C(F)(F)F)ccc12 (centres unmarked) [Example 79, tert-butyl 3-(3-((2-((4-fluoro-3-(trifluoromethyl)phenyl)carbamoyl)-6-(trifluoromethyl)benzo[b]thiophen-3-yl)carbamoyl)-4-methoxyphenyl) piperidine-1-carboxylate]
1010 nM | COc1ccc(C#CCO)cc1C(=O)Nc1c(C(=O)Nc2ccc(F)c(C(F)(F)F)c2)sc2cc(C3CC3)ncc12 [Example 202, 6-cyclopropyl-N-(4-fluoro-3-(trifluoromethyl)phenyl)-3-(5-(3-hydroxyprop-1-yn-1-yl)-2-methoxy-benzamido) thieno[3,2-c]pyridine-2-carboxamide]
29.8 nM | COc1ccc(C2CC2C(=O)NC2CCOCC2)cc1C(=O)Nc1c(C(=O)Nc2ccc(F)c(C(F)(F)F)c2)sc2cc(C(F)(F)F)ccc12 (single isomer, unassigned) [Example 158, N-[4-fluoro-3-(trifluoromethyl)phenyl]-3-(2-methoxy-5-{2-[(oxan-4-yl)carbamoyl]cyclopropyl}benzamido)-6-(trifluoromethyl)-1-benzothiophene-2-carboxamide]

Compound | EC50
COc1ccc(C2CC3CCC(C2)N3CC(N)=O)cc1C(=O)Nc1c(C(=O)Nc2ccc(F)c(C(F)(F)F)c2)sc2cc(C(F)(F)F)ccc12 (centres unmarked) [Example 192, 3-(5-(8-(2-amino-2-oxoethyl)-8-azabicyclo[3.2.1]octan-3-yl)-2-methoxy-benzamido)-N-(4-fluoro-3-(trifluoromethyl)phenyl)-6-(trifluoromethyl) benzo[b] thiophene-2-carboxamide] | 889 nM
